According to article PMC4610302 (Journal of Medicinal Chemistry, 2015):

Experiments:
[1] = test system: OTUB2 gene in cells with only ERα; settings: MCF-7 cells with only ERα, qPCR, 24 h
[2] = biological target: purified full-length human ERβ (Homo sapiens, UniProt Q92731); test: biochemical
[3] = biological target: hERβ (Homo sapiens, UniProt Q92731); settings: HEC-1 reporter assay

Row | Structure (SMILES) | Stimulation of OTUB2 in cells with only ERα [1] | Ki [2] | Reduction in potency on ERβ compared to 2a [3]
1 | C/C(=N\O)c1cc(-c2ccc(O)cc2)ccc1O [2a, (E)-1-(6-Hydroxy-3-(4-hydroxyphenyl)phenyl)ethanone Oxime] | no stimulation | 1.1 nM | –
2 | C/C(=N\O)c1cc(-c2ccc(O)c(F)c2)ccc1O [2c, (E)-1-(6-Hydroxy-3-(3-fluoro-4-hydroxyphenyl)phenyl)ethanone Oxime] | no stimulation | – | ~4 fold
